Measured values published in US20160067221A1, “USE OF ERGOTHIONEINE FOR INDUCING ACTIVITY OF NRF2 IN CELL” (China Medical University, priority 2014, published 2016).

What was measured:
Type in all cases: cell-based, human
HaCaT cells [1] = assay: Cell viability by MTT assay, with or without UVA irradiation
Description: To examine a safety of the ergothioneine and a safe used dose of the ergothioneine to normal cells, HaCaT cells, human keratinocyte cell lines, are treated with different dose of the ergothioneine and then detected a cell viability.
The HaCaT cells are maintained at 37° C. in a humidified atmosphere of 5% CO2 in a culture medium (Dulbecco's modified Eagle medium/high glucose (DMEM) supplemented with 10% heat-inactivated fetal bovine serum (FBS)).
The cell viability is monitored using a method of […] (MTT assay). The HaCaT cells are seeded in a 12-well plate with 1×10^5 cells/well and then maintained at 37° C. in a humidified atmosphere of 5% CO2 untill the HaCaT cells are adhered in the next day. The HaCaT cells are subsequently incubated with or without the ergothioneine, and then maintained at 37° C. in a humidified atmosphere of 5% CO2 for 24 hours, wherein the concentration of the ergothioneine is 125 nM, 250 nM and 500 nM, respectively. Next, the HaCaT cells are washed with phosphate buffered saline (PBS) three times, and then irradiated with the UVA (15 J/cm^2). After the UVA irradiation, the PBS is replaced with the culture medium to culture the HaCaT cells for 4 hours. In next step, the culture medium is removed, the HaCaT cells are washed with PBS thrice, and then 450 μL of 1×MTT agent is added in each well to react at 37° C. in a humidified atmosphere of 5% CO2 for 2 hours. A culture supernatant is removed and re-suspended with 400 μL of isopropanol to dissolve MTT formazan. 200 μL of the supernatant is taken from the well and then added into a 96-well microplate to measure an absorbance at 570 nm.
The cell viability of the HaCaT cells is detected by the MTT assay.

[2] = tested on: Nrf2 knockdown HaCaT cells; assay: ROS generation in siRNA-transfected HaCaT cells; details: 500 nM 24 hours
Description: The siRNA transfection includes steps as follows. The HaCaT cells are seeded in a 6-well plate with 4×10^5 cells/well and then maintained at 37° C. in the humidified atmosphere of 5% CO2 untill the time of the transfection. The day after reaching 40-60% confluence, the culture medium is replaced with 1 mL of FBS-free and antibiotic-free culture medium in each well, and the HaCaT cells are transfected with a siNrf2 or a control siRNA by using Lipofectamine 2000 (Invitrogen, U.S.A.) for 4-6 hours. After the incubation for 4-6 hours, the HaCaT cells are washed with the culture medium supplemented with 10% FBS 2-3 times, and then cultured in the culture medium supplemented with 10% FBS for 12-16 hours.
We further measure the amount of ROS generation in the HaCaT cells treated with the ergothioneine prior to 15 J/cm^2 UVA irradiation. The HaCaT cells are incubated with 500 nM ergothioneine for 24 hours after the siRNA transfection. After the incubation, the HaCaT cells are treated with or without the UVA irradiation (15 J/cm^2) for 4 hours, and then the HaCaT cells are subjected to detect the ROS generation.

HaCaT cells [3] = assay: Comet assay (DNA damage); details: for Toxicity Scale 0 (comets in class 0) / Toxicity Scale 1 (comets in class 1) / Toxicity Scale 2 (comets in class 2) / Toxicity Scale 3 (comets in class 3) / Toxicity Scale 4 (comets in class 4): per 100 comets
Description: The exposure of the UVA can cause a DNA damage. To examine the effect of the ergothioneine on the UVA-induced DNA damage, we use a comet assay to analyze the DNA damage. The comet assay involves an encapsulation of the cells in a low-melting-point agarose suspension, the cells lysis in alkaline (pH>13) conditions, a short-term electrophoresis of the suspended lysed cells, and a stained DNA of an electrophoretic stripe using the fluorescent dye. The term “comet” refers to a pattern of a DNA migration through the electrophoresis gel, wherein the DNA migration is caused by a DNA cleavage fragment of the damaged cell released from its nucleus, and the DNA cleavage fragment moves faster than the nucleus of a non-damaged cell in an electric field and results in structure resembling the comet. […] Then, the HaCaT cells are performed the comet assay and stained by red fluorescent dye. The pattern of the nucleus of the damaged cell resembles the comet in the comet assay, which is caused by the DNA cleavage fragment of the damaged cell. In contrast, the pattern of the nucleus of the normal cell, which has non-DNA cleavage fragment, is spherical in the comet assay. […] In FIG. 4 and Table 1, the UVA irradiation (15 J/cm^2) for 4 hours triggers the DNA breakage of the nucleus shown as the tail. The overall score of the group treated with the UVA irradiation alone is 356.3±2.1. […] Therefore, the ergothioneine can inhibit the DNA damage and has a protective property.

SMILES: C[N+](C)(C)[C@@H](Cc1c[nH]c(=S)[nH]1)C(=O)[O-] [ergothioneine, 2-mercapto histidine trimethylbetain]
- cell death at respective dose of UVA irradiation (HaCaT cells [1]; 500 nM for 2 hours, UVA 5-15 J/cm^2): significantly attenuated
- cytotoxic effects (cell viability) (HaCaT cells [1]; HaCaT cells, 125-500 nM, 24 hours): does not cause any cytotoxic effects
- cell viability (HaCaT cells [1]; pretreated with 500 nM, then UVA 15 J/cm^2, cultured 4 hours): 75.5%
- UVA-induced cell death (HaCaT cells [1]; pretreatment 125-500 nM, UVA 15 J/cm^2): attenuates a UVA-induced cell death in a dose-dependent manner
- ROS generation ([2]; Nrf2 siRNA, UVA 15 J/cm^2): unable to decrease the ROS generation
- ROS generation ([2]; control siRNA, UVA 15 J/cm^2, vs UVA alone): significantly reduced
- Total Damage (overall comet score, 0-400) (HaCaT cells [3]; 250 nM + 15 J/cm^2 UVA): 144 ± 10
- Toxicity Scale 0 (comets in class 0) (HaCaT cells [3]; 250 nM + 15 J/cm^2 UVA): 20 ± 1
- Toxicity Scale 1 (comets in class 1) (HaCaT cells [3]; 250 nM + 15 J/cm^2 UVA): 27 ± 6
- Toxicity Scale 2 (comets in class 2) (HaCaT cells [3]; 250 nM + 15 J/cm^2 UVA): 52 ± 9
- Toxicity Scale 3 (comets in class 3) (HaCaT cells [3]; 250 nM + 15 J/cm^2 UVA): 0 ± 0
- Toxicity Scale 4 (comets in class 4) (HaCaT cells [3]; 250 nM + 15 J/cm^2 UVA): 0 ± 0
- Total Damage (overall comet score, 0-400) (HaCaT cells [3]; 250 nM, no UVA): 14 ± 4
- Toxicity Scale 0 (comets in class 0) (HaCaT cells [3]; 250 nM, no UVA): 88 ± 4
- Toxicity Scale 1 (comets in class 1) (HaCaT cells [3]; 250 nM, no UVA): 10 ± 4
- Toxicity Scale 2 (comets in class 2) (HaCaT cells [3]; 250 nM, no UVA): 2 ± 2
- Toxicity Scale 3 (comets in class 3) (HaCaT cells [3]; 250 nM, no UVA): 0 ± 0
- Toxicity Scale 4 (comets in class 4) (HaCaT cells [3]; 250 nM, no UVA): 0 ± 0
- Total Damage (overall comet score, 0-400) (HaCaT cells [3]; 500 nM + 15 J/cm^2 UVA): 59.0±7.0
- Total Damage (overall comet score, 0-400) (HaCaT cells [3]; 500 nM + 15 J/cm^2 UVA, listed as EGT): 59 ± 7
- Toxicity Scale 0 (comets in class 0) (HaCaT cells [3]; 500 nM + 15 J/cm^2 UVA): 49 ± 7
- Toxicity Scale 1 (comets in class 1) (HaCaT cells [3]; 500 nM + 15 J/cm^2 UVA): 43 ± 8
- Toxicity Scale 2 (comets in class 2) (HaCaT cells [3]; 500 nM + 15 J/cm^2 UVA): 8 ± 1
- Toxicity Scale 3 (comets in class 3) (HaCaT cells [3]; 500 nM + 15 J/cm^2 UVA): 0 ± 0
- Toxicity Scale 4 (comets in class 4) (HaCaT cells [3]; 500 nM + 15 J/cm^2 UVA): 0 ± 0
- Total Damage (overall comet score, 0-400) (HaCaT cells [3]; 500 nM, no UVA): 22 ± 6
- Toxicity Scale 0 (comets in class 0) (HaCaT cells [3]; 500 nM, no UVA): 81 ± 6
- Toxicity Scale 1 (comets in class 1) (HaCaT cells [3]; 500 nM, no UVA): 16 ± 7
- Toxicity Scale 2 (comets in class 2) (HaCaT cells [3]; 500 nM, no UVA): 3 ± 2
- Toxicity Scale 3 (comets in class 3) (HaCaT cells [3]; 500 nM, no UVA): 0 ± 0
- Toxicity Scale 4 (comets in class 4) (HaCaT cells [3]; 500 nM, no UVA): 0 ± 0
